Measured values reported in ChEMBL document CHEMBL4387711, “Discovery of niclosamide and its O-alkylamino-tethered derivatives as potent antibacterial agents against carbapenemase-producing and/or colistin resistant Enterobacteriaceae isolates” (2019).
In brackets after ≈: the same amount, converted by molar mass. Activity calls are given as the source filed them. The calls are words filed in the database; no cut-off is given here.

Experiments:
Klebsiella aerogenes [1] = experiment: Antibacterial activity against colistin-resistant Enterobacter aerogenes 53 by broth microdilution method; assay type: functional, organism-based
Klebsiella pneumoniae [2] = experiment: Antibacterial activity against colistin-resistant VIM1/DHAI/carbapenemase-producing Klebsiella pneumoniae 21 by broth microdilution method; assay type: functional, organism-based
Klebsiella aerogenes [3] = experiment: Antibacterial activity against colistin-resistant Enterobacter aerogenes 3 by broth microdilution method; assay type: functional, organism-based
Klebsiella pneumoniae [4] = experiment: Antibacterial activity against colistin-resistant OXA-48/CTX-M-15/carbapenemase-producing Klebsiella pneumoniae 29 by broth microdilution method; assay type: functional, organism-based
Klebsiella pneumoniae [5] = experiment: Antibacterial activity against colistin-susceptible OXA-48/CTX-M-15/carbapenemase-producing Klebsiella pneumoniae 28 by broth microdilution method; assay type: functional
Escherichia coli [6] = experiment: Bactericidal activity against colistin-susceptible NDM-1/KPC-producing Escherichia coli assessed as reduction in bacterial count at MIC measured after 2 hrs by time kill assay; assay type: functional, organism-based
Enterobacter cloacae [7] = experiment: Antibacterial activity against colistin-resistant Enterobacter cloacae 190 by broth microdilution method; assay type: functional, organism-based
Enterobacter cloacae [8] = experiment: Antibacterial activity against colistin-resistant Enterobacter cloacae 142 by broth microdilution method; assay type: functional, organism-based
Klebsiella pneumoniae [9] = experiment: Antibacterial activity against colistin-susceptible NDM-1/carbapenemase-producing Klebsiella pneumoniae by broth microdilution method; assay type: functional
Escherichia coli [10] = experiment: Antibacterial activity against colistin-susceptible NDM1/KPC-producing Escherichia coli by broth microdilution method; assay type: functional
Enterobacter cloacae [11] = experiment: Antibacterial activity against colistin-resistant Enterobacter cloacae 263 by broth microdilution method; assay type: functional, organism-based
Enterobacter cloacae [12] = experiment: Antibacterial activity against colistin-resistant Enterobacter cloacae 32 by broth microdilution method; assay type: functional, organism-based
Klebsiella pneumoniae [13] = experiment: Antibacterial activity against colistin-susceptible VIM1/carbapenemase-producing Klebsiella pneumoniae 07 by broth microdilution method; assay type: functional, organism-based
Enterobacter cloacae [14] = experiment: Antibacterial activity against colistin-resistant Enterobacter cloacae 297 by broth microdilution method; assay type: functional
Enterobacter cloacae [15] = experiment: Antibacterial activity against colistin-resistant Enterobacter cloacae 280 by broth microdilution method; assay type: functional
Enterobacter cloacae [16] = experiment: Antibacterial activity against colistin-resistant Enterobacter cloacae 272 by broth microdilution method; assay type: functional, organism-based
Enterobacter cloacae [17] = experiment: Antibacterial activity against colistin-resistant Enterobacter cloacae 297 assessed as inhibition of growth at 50 uM after 18 hrs; assay type: functional, organism-based
Enterobacter cloacae [18] = experiment: Antibacterial activity against colistin-resistant Enterobacter cloacae 190 assessed as inhibition of growth at 50 uM after 18 hrs; assay type: functional, organism-based
Klebsiella pneumoniae [19] = experiment: Antibacterial activity against colistin-susceptible NDM-1/carbapenemase-producing Klebsiella pneumoniae assessed as inhibition of growth at 50 uM after 18 hrs; assay type: functional, organism-based
Klebsiella aerogenes [20] = experiment: Antibacterial activity against colistin-resistant Enterobacter aerogenes 53 assessed as inhibition of growth at 50 uM after 18 hrs; assay type: functional, organism-based
Klebsiella pneumoniae [21] = experiment: Antibacterial activity against colistin-susceptible OXA-48/CTX-M-15/carbapenemase-producing Klebsiella pneumoniae 28 assessed as inhibition of growth at 50 uM after 18 hrs; assay type: functional, organism-based
Enterobacter cloacae [22] = experiment: Antibacterial activity against colistin-resistant Enterobacter cloacae 272 assessed as inhibition of growth at 50 uM after 18 hrs; assay type: functional, organism-based
Klebsiella pneumoniae [23] = experiment: Antibacterial activity against carbapenemase/Klebsiella pneumoniae CECT-997 by broth microdilution method; assay type: functional
Klebsiella aerogenes [24] = experiment: Antibacterial activity against colistin-resistant Enterobacter aerogenes 3 assessed as inhibition of growth at 50 uM after 18 hrs; assay type: functional, organism-based
Enterobacter cloacae [25] = experiment: Antibacterial activity against colistin-resistant Enterobacter cloacae 263 assessed as inhibition of growth at 50 uM after 18 hrs; assay type: functional, organism-based
Enterobacter cloacae [26] = experiment: Antibacterial activity against colistin-resistant Enterobacter cloacae 142 assessed as inhibition of growth at 50 uM after 18 hrs; assay type: functional, organism-based
Klebsiella pneumoniae [27] = experiment: Bactericidal activity against OXA-48/CTX-M-15/carbapenemase-producing Klebsiella pneumoniae 28 assessed as reduction in bacterial count at MIC measured from 2 hrs in presence of colistin by time kill assay; assay type: functional, organism-based
Escherichia coli [28] = experiment: Synergistic antibacterial activity against colistin-susceptible NDM1/KPC-producing Escherichia coli in presence of colistin by checkerboard assay; assay type: functional
Enterobacter cloacae [29] = experiment: Antibacterial activity against colistin-resistant Enterobacter cloacae 280 assessed as inhibition of growth at 50 uM after 18 hrs; assay type: functional, organism-based
Klebsiella pneumoniae [30] = experiment: Synergistic bactericidal activity against OXA-48/CTX-M-15/carbapenemase-producing Klebsiella pneumoniae 28 assessed as reduction in bacterial count at MIC measured after 2 hrs in presence of colistin by time kill assay; assay type: functional, organism-based
Escherichia coli [31] = experiment: Antibacterial activity against colistin-susceptible NDM1/KPC-producing Escherichia coli assessed as inhibition of growth at 50 uM after 18 hrs; assay type: functional, organism-based
Enterobacter cloacae [32] = experiment: Antibacterial activity against colistin-resistant Enterobacter cloacae 32 assessed as inhibition of growth at 50 uM after 18 hrs; assay type: functional, organism-based
Klebsiella pneumoniae [33] = experiment: Antibacterial activity against Klebsiella pneumoniae CECT-997 assessed as inhibition of growth at 50 uM after 18 hrs; assay type: functional, organism-based
Klebsiella pneumoniae [34] = experiment: Antibacterial activity against colistin-susceptible VIM1/carbapenemase-producing Klebsiella pneumoniae 07 assessed as inhibition of growth at 50 uM after 18 hrs; assay type: functional, organism-based
Klebsiella pneumoniae [35] = experiment: Antibacterial activity against colistin-resistant VIM1/DHAI/carbapenemase-producing Klebsiella pneumoniae 21 assessed as inhibition of growth at 50 uM after 18 hrs; assay type: functional, organism-based
Klebsiella pneumoniae [36] = experiment: Antibacterial activity against colistin-resistant OXA-48/CTX-M-15/carbapenemase-producing Klebsiella pneumoniae 29 assessed as inhibition of growth at 50 uM after 18 hrs; assay type: functional, organism-based
Enterobacter cloacae [37] = experiment: Synergistic antibacterial activity against colistin-resistant Enterobacter cloacae 297 in presence of colistin by checkerboard assay; assay type: functional
Enterobacter cloacae [38] = experiment: Bactericidal activity against colistin-resistant Enterobacter cloacae 280 assessed as reduction in bacterial count at MIC measured after 2 hrs in presence of colistin by time kill assay; assay type: functional, organism-based
Enterobacter cloacae [39] = experiment: Synergistic antibacterial activity against colistin-resistant Enterobacter cloacae 280 in presence of colistin by checkerboard assay; assay type: functional
Enterobacter cloacae [40] = experiment: Synergistic bactericidal activity against colistin-resistant Enterobacter cloacae 280 assessed as reduction in bacterial count at MIC measured after 8 hrs in presence of colistin by time kill assay; assay type: functional, organism-based
Klebsiella pneumoniae [41] = experiment: Synergistic bactericidal activity against OXA-48/CTX-M-15/carbapenemase-producing Klebsiella pneumoniae 28 assessed as reduction in bacterial count at MIC measured after 8 hrs in presence of colistin by time kill assay; assay type: functional, organism-based
Klebsiella pneumoniae [42] = experiment: Bactericidal activity against OXA-48/CTX-M-15/carbapenemase-producing Klebsiella pneumoniae 28 assessed as reduction in bacterial count at MIC measured from 4 to 8 hrs in presence of colistin by time kill assay; assay type: functional, organism-based
Klebsiella pneumoniae [43] = experiment: Synergistic antibacterial activity against colistin-susceptible NDM-1/carbapenemase-producing Klebsiella pneumoniae in presence of colistin by checkerboard assay; assay type: functional
Escherichia coli [44] = experiment: Bactericidal activity against colistin-susceptible NDM-1/KPC-producing Escherichia coli assessed as reduction in bacterial count at MIC measured after 2 hrs in presence of colistin by time kill assay; assay type: functional, organism-based

| Compound | MIC (Klebsiella pneumoniae [5]) | MIC (Klebsiella pneumoniae [9]) | MIC (Escherichia coli [10]) | MIC (Enterobacter cloacae [14]) | MIC (Enterobacter cloacae [15]) | growth inhibition (GI) (Enterobacter cloacae [17]) | growth inhibition (GI) (Enterobacter cloacae [18]) | growth inhibition (GI) (Klebsiella pneumoniae [19]) | growth inhibition (GI) (Klebsiella aerogenes [20]) | growth inhibition (GI) (Klebsiella pneumoniae [21]) | growth inhibition (GI) (Enterobacter cloacae [22]) | MIC (Klebsiella pneumoniae [23]) | growth inhibition (GI) (Klebsiella aerogenes [24]) | growth inhibition (GI) (Enterobacter cloacae [25]) | growth inhibition (GI) (Enterobacter cloacae [26]) | growth inhibition (GI) (Enterobacter cloacae [29]) | growth inhibition (GI) (Escherichia coli [31]) | growth inhibition (GI) (Enterobacter cloacae [32]) | growth inhibition (GI) (Klebsiella pneumoniae [33]) | growth inhibition (GI) (Klebsiella pneumoniae [34]) | also measured |
| --- | --- | --- | --- | --- | --- | --- | --- | --- | --- | --- | --- | --- | --- | --- | --- | --- | --- | --- | --- | --- | --- |
| COLISTIN | 0.5 µg/mL | 0.5 µg/mL | 0.5 µg/mL | 3 µg/mL | 32 µg/mL | – | – | – | – | – | – | – | – | – | – | – | – | – | – | – | MIC (Klebsiella aerogenes [1]): 32 µg/mL; MIC (Klebsiella pneumoniae [2]): 64 µg/mL; MIC (Klebsiella aerogenes [3]): 32 µg/mL; MIC (Klebsiella pneumoniae [4]): 32 µg/mL; Activity (Escherichia coli [6]): Active; MIC (Enterobacter cloacae [7]): 32 µg/mL; MIC (Enterobacter cloacae [8]): 64 µg/mL; MIC (Enterobacter cloacae [11]): 8 µg/mL; MIC (Enterobacter cloacae [12]): > 256 µg/mL; MIC (Klebsiella pneumoniae [13]): 0.5 µg/mL; MIC (Enterobacter cloacae [16]): 16 µg/mL |
| NCCCCCOc1ccc(Cl)cc1C(=O)Nc1ccc([N+](=O)[O-])cc1Cl | 15 µg/mL (≈ 36.4 µM) | > 15 µg/mL | > 15 µg/mL | inactive | inactive | inactive | inactive | Active | inactive | Active | inactive | inactive | inactive | inactive | inactive | inactive | Active | inactive | inactive | inactive | Activity (Klebsiella pneumoniae [27]): Active; fractional inhibitory concentration index (FICI) (Escherichia coli [28]): 0.38; Activity (Klebsiella pneumoniae [30]): Active; growth inhibition (GI) (Klebsiella pneumoniae [35]): inactive; growth inhibition (GI) (Klebsiella pneumoniae [36]): inactive |
| O=C(Nc1ccc([N+](=O)[O-])cc1Cl)c1cc(Cl)ccc1O [NICLOSAMIDE] | inactive | inactive | inactive | > 15 µg/mL | > 15 µg/mL | Active | inactive | inactive | inactive | inactive | inactive | inactive | inactive | inactive | inactive | Active | inactive | inactive | inactive | inactive | fractional inhibitory concentration index (FICI) (Enterobacter cloacae [37]): 0.25; Activity (Enterobacter cloacae [38]): Active; fractional inhibitory concentration index (FICI) (Enterobacter cloacae [39]): 0.25; Activity (Enterobacter cloacae [40]): Active; growth inhibition (GI) (Klebsiella pneumoniae [35]): inactive; growth inhibition (GI) (Klebsiella pneumoniae [36]): inactive |
| NCCCCOc1ccc(Cl)cc1C(=O)Nc1ccc([N+](=O)[O-])cc1Cl | 15 µg/mL (≈ 37.7 µM) | > 15 µg/mL | 15 µg/mL (≈ 37.7 µM) | > 15 µg/mL | > 15 µg/mL | Active | inactive | Active | inactive | Active | inactive | 15 µg/mL (≈ 37.7 µM) | inactive | inactive | inactive | Active | Active | inactive | Active | inactive | Activity (Klebsiella pneumoniae [41]): Active; Activity (Klebsiella pneumoniae [42]): Active; fractional inhibitory concentration index (FICI) (Klebsiella pneumoniae [43]): 0.5; Activity (Escherichia coli [6]): Active; Activity (Escherichia coli [44]): Active; fractional inhibitory concentration index (FICI) (Escherichia coli [28]): 0.25; growth inhibition (GI) (Klebsiella pneumoniae [35]): inactive; growth inhibition (GI) (Klebsiella pneumoniae [36]): inactive |
| NCCOCCOc1ccc(Cl)cc1C(=O)Nc1ccc([N+](=O)[O-])cc1Cl | inactive | inactive | > 15 µg/mL | > 15 µg/mL | inactive | Active | inactive | inactive | inactive | inactive | inactive | inactive | inactive | inactive | inactive | inactive | Active | inactive | inactive | inactive | growth inhibition (GI) (Klebsiella pneumoniae [35]): inactive; growth inhibition (GI) (Klebsiella pneumoniae [36]): inactive |
| CC[C@H](N)COc1ccc(Cl)cc1C(=O)Nc1ccc([N+](=O)[O-])cc1Cl | inactive | inactive | > 15 µg/mL | inactive | inactive | inactive | inactive | inactive | inactive | inactive | inactive | inactive | inactive | inactive | inactive | inactive | Active | inactive | inactive | inactive | fractional inhibitory concentration index (FICI) (Escherichia coli [28]): 0.5; growth inhibition (GI) (Klebsiella pneumoniae [35]): inactive; growth inhibition (GI) (Klebsiella pneumoniae [36]): inactive |
